Experiments:
Format in all cases: in vivo
Conditions in all cases: 50 ppm, 100 = 100% disease control, 0 = no control
Botrytis cinerea = assay: Test E: tomato Botrytis, preventive spray on tomato seedlings
Procedure, shortened: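 Compound suspended in 50/50 acetone/water with 250 ppm PEG400 surfactant and sprayed to run-off on tomato seedlings; Botrytis cinerea spores applied the next day. Incubation 48 h at 20° C in saturated atmosphere, then 3 days at 24° C. Visual rating 0–100% disease control relative to controls.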

Phakopsora pachyrhizi = assay: Test D: Asian soybean rust, preventive spray on soybean seedlings
Procedure, shortened: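 Compounds in acetone/water (50/50) with 250 ppm PEG400, dosed in ppm, sprayed to run-off on soybean seedlings; inoculated with P. pachyrhizi spores next day. Held 24 h at 22 °C in saturated air, then 8 days at 22 °C; visual rating of disease control, 0–100, relative to untreated controls.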

Alternaria solani = assay: Test F: tomato early blight, preventive spray on tomato seedlings
Procedure, shortened: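 Tomato seedlings were sprayed to run-off with compound suspended in acetone/water (50/50) with 250 ppm PEG400 and inoculated with Alternaria solani spores the next day. Plants were held 48 h at 27 °C in saturated humidity, then 3 days at 20 °C. Disease control was rated visually from 0 to 100 against untreated controls.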

Septoria tritici = assay: Test A: wheat leaf blotch, preventive spray on wheat seedlings
Procedure, shortened: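 Wheat seedlings sprayed to run-off with compound suspended in acetone/water with 250 ppm PEG400 surfactant, inoculated next day with Septoria tritici spores. Held 48 h saturated at 24 °C, then 17 days at 20 °C; disease rated 0–100% control relative to controls.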

[1] = system: Blumeria graminis f. sp. tritici; assay: Test C: wheat powdery mildew, preventive spray on wheat seedlings
Procedure, shortened: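 Seedlings were sprayed to run-off with compound suspended (ppm) in 50/50 acetone–water containing 250 ppm PEG400, then spore-dust inoculated the following day. After 8 days at 20° C, disease control was rated visually from 0 to 100 against controls.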

[2] = system: Puccinia recondita f. sp. tritici; assay: Test B: wheat leaf rust, preventive spray on wheat seedlings
Procedure, shortened: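 Wheat seedlings were sprayed to run-off with compound suspended at ppm concentrations in acetone/water containing 250 ppm PEG400. The next day they were inoculated with Puccinia recondita f. sp. tritici spores, held saturated at 20 °C for 24 h, then kept 7 days at 20 °C. Disease control was rated 0–100% relative to untreated controls.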

| Compound | Test E disease control rating (Botrytis cinerea) [%] | Test D disease control rating (Phakopsora pachyrhizi) [%] | Test F disease control rating (Alternaria solani) [%] | Test A disease control rating (Septoria tritici) [%] | Test C disease control rating [1] [%] | Test B disease control rating [2] [%] |
| --- | --- | --- | --- | --- | --- | --- |
| COc1cc(F)c(Nc2c(-c3ccc(F)cc3Br)c(C)nn2C)c([N+](=O)[O-])c1 [compound 165] | 100 | 94 | 100 | 99 | 98 | 100 |
| Cc1nn(C)c(Nc2c(Cl)cccc2[N+](=O)[O-])c1-c1c(F)cc(F)cc1Br [compound 163] | 88 | 78 | 76 | 99 | 98 | 100 |
| Cc1nn(C)c(Nc2c(F)cc(Cl)cc2[N+](=O)[O-])c1-c1c(F)cccc1F [compound 98] | 99 | 0 | 98 | 100 | 93 | 97 |
| COc1cc(Cl)c(Nc2c(-c3ccc(F)cc3Cl)c(C)nn2C)c([N+](=O)[O-])c1 [compound 80] | 95 | 50 | 98 | 100 | 97 | 100 |
| Cc1cc(Cl)c(Nc2c(-c3ccc(Cl)cc3Cl)c(C)nn2C)c([N+](=O)[O-])c1 [compound 145] | 85 | 0 | 24 | 98 | 52 | 92 |
| CCc1nn(C)c(Nc2c(F)cccc2[N+](=O)[O-])c1-c1c(F)cc(Cl)cc1F [compound 170] | 100 | 0 | 99 | 100 | 99 | 99 |
| Cc1nn(C)c(Nc2c(Cl)cc(Cl)cc2[N+](=O)[O-])c1-c1ccc(F)cc1Br [compound 37] | 88 | 0 | 78 | 100 | 98 | 100 |
| Cc1cc(Cl)c(Nc2c(-c3ccc(F)cc3Cl)c(C)nn2C)c([N+](=O)[O-])c1 [compound 31] | 99 | 98 | 76 | 100 | 100 | 100 |
| Cc1cccc([N+](=O)[O-])c1Nc1c(-c2ccc(F)cc2Br)c(C)nn1C [compound 42] | 91 | 0 | 0 | 100 | 96 | 100 |
| Cc1nn(C)c(Nc2c(Cl)cccc2[N+](=O)[O-])c1-c1c(F)cccc1Cl [compound 38] | 88 | 0 | 0 | 100 | 95 | 99 |
| Cc1cc(Cl)c(Nc2c(-c3c(F)cccc3Cl)c(C)nn2C)c([N+](=O)[O-])c1 [compound 24] | 97 | 0 | 0 | 100 | 0 | 89 |
| Cc1cc(Cl)c(Nc2c(-c3c(F)cccc3F)c(C)nn2C)c([N+](=O)[O-])c1 [compound 100] | 26 | 0 | 0 | 100 | 21 | 89 |
| COc1cc(F)c(Nc2c(-c3ccc(F)cc3Cl)c(C)nn2C)c([N+](=O)[O-])c1 [compound 85] | 94 | 96 | 98 | 100 | 97 | 100 |
| COc1ccc(-c2c(C)nn(C)c2Nc2c(Cl)cccc2[N+](=O)[O-])c(Cl)c1 [compound 184] | 100 | 0 | 26 | 100 | 21 | 100 |
| Cc1nn(C)c(Nc2c(Cl)cc(F)cc2[N+](=O)[O-])c1-c1ccc(F)cc1F [compound 67] | 98 | 69 | 33 | 100 | 89 | 100 |
| Cc1nn(C)c(Nc2c(F)cc(F)cc2[N+](=O)[O-])c1-c1c(F)cccc1F [compound 75] | 57 | 0 | 98 | 100 | 90 | 99 |
| Cc1ccc(Nc2c(-c3ccc(F)cc3Cl)c(C)nn2C)c([N+](=O)[O-])c1 [compound 26] | 100 | 77 | 68 | 100 | 94 | 99 |
| Cc1ccc(Nc2c(-c3c(F)cccc3Cl)c(C)nn2C)c([N+](=O)[O-])c1 [compound 195] | 98 | 0 | 73 | 100 | 97 | 98 |
| Cc1nn(C)c(Nc2ccc(Cl)cc2[N+](=O)[O-])c1-c1ccc(F)cc1Cl [compound 92] | 100 | 0 | 79 | 100 | 89 | 96 |
| Cc1cc(F)c(Nc2c(-c3c(F)cc(C#N)cc3F)c(C)nn2C)c([N+](=O)[O-])c1 [compound 200] | 98 | 100 | 100 | 99 | 99 | 100 |
| Cc1cc(F)c(Nc2c(-c3ccc(Cl)cc3Cl)c(C)nn2C)c([N+](=O)[O-])c1 [compound 143] | 99 | 87 | 100 | 99 | 96 | 100 |
| Cc1nn(C)c(Nc2c(Br)cccc2[N+](=O)[O-])c1-c1ccc(F)cc1Cl [compound 110] | 99 | 73 | 0 | 100 | 56 | 98 |
| Cc1cc(F)c(Nc2c(-c3ccc(C#N)cc3F)c(C)nn2C)c([N+](=O)[O-])c1 [compound 198] | 99 | 89 | 100 | 99 | 95 | 99 |
| COc1cc(Cl)c(Nc2c(-c3ccc(F)cc3F)c(C)nn2C)c([N+](=O)[O-])c1 [compound 141] | 99 | 0 | 83 | 99 | 99 | 100 |
| Cc1cc(F)c(Nc2c(-c3c(F)cc(F)cc3F)c(C)nn2C)c([N+](=O)[O-])c1 [compound 194] | 99 | 99 | 100 | 100 | 100 | 100 |
| Cc1nn(C)c(Nc2c(F)cc(Br)cc2[N+](=O)[O-])c1-c1ccc(C#N)cc1Cl [compound 155] | 100 | 0 | 93 | 99 | 90 | 99 |

Source: patent US20230148599A1, “FUNGICIDAL MIXTURES CONTAINING PYRAZOLE DERIVATIVES” (FMC Corporation, priority 2020, published 2023)
